Reference: ChEMBL document CHEMBL1142644, “Antineoplastic agents 440. Asymmetric synthesis and evaluation of the combretastatin A-1 SAR probes (1S,2S)- and (1R,2R)-1, 2-dihydroxy- 1-(2',3'-dihydroxy-4'-methoxyphenyl)-2-(3' ',4' ',5' '-trimethoxyphenyl)-ethane” (J Nat Prod, 2000)
≈ marks a conversion by molar mass, not a printed value. Each block holds one compound with its values, some of them ahead of it. Calls of active or inactive are those of the source. The calls are words filed in the database; no cut-off is given here.

How the values were obtained:
Neisseria gonorrhoeae [1] = test: Antibacterial activity against Neisseria gonorrhoeae by disk susceptibility test; type: functional
P388 = test: Cytotoxicity against mouse P388 cells; type: functional; details: read-out: ED50 (the source's name)
Streptococcus pneumoniae [2] = test: Antibacterial activity against Streptococcus pneumoniae at 100 ug/disk by disk susceptibility test
Candida albicans [3] = test: Antifungal activity against Candida albicans at 100 ug/disk by disk susceptibility test
Enterococcus faecalis = test: Antibacterial activity against Enterococcus faecalis at 100 ug/disk by disk susceptibility test
Micrococcus luteus = test: Antibacterial activity against Micrococcus luteus at 100 ug/disk by disk susceptibility test
Neisseria gonorrhoeae [4] = test: Antibacterial activity against Neisseria gonorrhoeae at 100 ug/disk by disk susceptibility test
FaDu = test: Cytotoxicity against human FaDu cells; type: functional
Escherichia coli = test: Antibacterial activity against Escherichia coli at 100 ug/disk by disk susceptibility test
[5] = Inhibition of bovine tubulin polymerization; parameters: species or system Bos taurus
[6] = test system: Stenotrophomonas maltophilia; test: Antibacterial activity against Stenotrophomonas maltophilia at 100 ug/disk by disk susceptibility test
Enterobacter cloacae = test: Antibacterial activity against Enterobacter cloacae at 100 ug/disk by disk susceptibility test
Staphylococcus aureus [7] = test: Antibacterial activity against Staphylococcus aureus at 100 ug/disk by disk susceptibility test
Cryptococcus neoformans [8] = test: Antifungal activity against Cryptococcus neoformans at 100 ug/disk by disk susceptibility test
Staphylococcus aureus [9] = test: Antibacterial activity against Staphylococcus aureus by disk susceptibility test; type: functional
Bos taurus [10] = species on record: Bos taurus; test: Displacement of [3H]colchicine from bovine tubulin at inhibitor to colchicine ratio of 1:1; parameters: scale not given: the % may be the effect or the level left
Bos taurus [11] = species on record: Bos taurus; test: Displacement of [3H]colchicine from bovine tubulin at inhibitor to colchicine ratio of 0.2:1; parameters: scale not given: the % may be the effect or the level left
Streptococcus pneumoniae [12] = test: Antibacterial activity against Streptococcus pneumoniae by disk susceptibility test; type: functional
Cryptococcus neoformans [13] = test: Antifungal activity against Cryptococcus neoformans by disk susceptibility test; type: functional
Candida albicans [14] = test: Antifungal activity against Candida albicans by disk susceptibility test; type: functional
[15] = test system: Stenotrophomonas maltophilia; test: Antibacterial activity against Stenotrophomonas maltophilia by disk susceptibility test; type: functional
L1210 = test: Cytotoxicity against mouse L1210 cells; type: functional; details: read-out: ED50 (the source's name)

IC50 [5]: > 40 µM
MIC (Streptococcus pneumoniae [12]): 50 µg
Compound: COc1ccc([C@@H](O)[C@H](O)c2cc(OC)c(OC)c(OC)c2)cc1O
GI50 (FaDu): 2.1 µg/mL (≈ 5.99 µM)
EC50 (P388): 19 µg/mL (≈ 54.2 µM)

IC50 [5]: 14 µM
MIC (Streptococcus pneumoniae [12]): 25 µg
Compound: COc1ccc([C@H](O)[C@@H](O)c2cc(OC)c(OC)c(OC)c2)cc1O
GI50 (FaDu): 0.6 µg/mL (≈ 1.71 µM)
EC50 (P388): 2 µg/mL (≈ 5.71 µM)

MIC (Neisseria gonorrhoeae [1]): 25 µg
Compound: COc1ccc(/C=C\c2cc(OC)c(OC)c(OC)c2)cc1O [COMBRETASTATIN A4]
GI50 (FaDu): 0.0007 µg/mL (≈ 0.00221 µM)
EC50 (P388): 0.0003 µg/mL (≈ 0.000948 µM)
EC50 (L1210): 0.007 µM

IC50 [5]: 10 µM
MIC (Neisseria gonorrhoeae [1]): 25 µg
Compound: COc1ccc([C@H](O)[C@@H](O)c2cc(OC)c(OC)c(OC)c2)c(O)c1O
GI50 (FaDu): > 10 µg/mL
EC50 (P388): 2.9 µg/mL (≈ 7.92 µM)

Second part, the compound before the results:

Compound: COc1ccc(CCc2cc(OC)c(OC)c(OC)c2)c(O)c1O
MIC (Neisseria gonorrhoeae [1]): 12.5 µg
EC50 (P388): 1.7 µg/mL (≈ 5.08 µM)

Compound: COc1ccc([C@@H](O)[C@H](O)c2cc(OC)c(OC)c(OC)c2)c(O)c1O
Activity (Streptococcus pneumoniae [2]): inactive
Activity (Candida albicans [3]): inactive
Activity (Enterococcus faecalis): inactive
Activity (Micrococcus luteus): inactive
Activity (Neisseria gonorrhoeae [4]): inactive
GI50 (FaDu): 4.9 µg/mL (≈ 13.4 µM)
Activity (Escherichia coli): inactive
IC50 [5]: 20 µM
Activity [6]: inactive
EC50 (P388): 3.9 µg/mL (≈ 10.6 µM)
Activity (Enterobacter cloacae): inactive
Activity (Staphylococcus aureus [7]): inactive
Activity (Cryptococcus neoformans [8]): inactive

Compound: COc1ccc(/C=C\c2cc(OC)c(OC)c(OC)c2)c(O)c1O [COMBRETASTATIN A-1]
MIC (Staphylococcus aureus [9]): 50 µg
Activity (Bos taurus [10]): 99.6%
GI50 (FaDu): 0.23 µg/mL (≈ 0.692 µM)
IC50 [5]: 1.1 µM
Activity (Bos taurus [11]): 89%
MIC (Neisseria gonorrhoeae [1]): 25 µg
EC50 (P388): 0.2 µg/mL (≈ 0.602 µM)

Compound: COc1cc(CCc2ccc(OC)c(OP(=O)([O-])[O-])c2OP(=O)([O-])[O-])cc(OC)c1OC.[Na+].[Na+].[Na+].[Na+]
EC50 (P388): 0.3 µg/mL

Compound: COc1cc(/C=C\c2ccc(OC)c(OP(=O)([O-])[O-])c2OP(=O)([O-])[O-])cc(OC)c1OC.[Na+].[Na+].[Na+].[Na+]
EC50 (P388): < 0.01 µg/mL

Compound: COc1ccc(/C=C\c2cc(OC)c(OC)c(OC)c2)cc1OP(=O)([O-])[O-].[Na+].[Na+] [FOSBRETABULIN DISODIUM]
MIC (Neisseria gonorrhoeae [1]): 50 µg
EC50 (P388): 0.0004 µg/mL

Compound: COc1ccc(/C=C/c2cc(OC)c(OC)c(OC)c2)cc1O
Activity (Streptococcus pneumoniae [2]): inactive
Activity (Candida albicans [3]): inactive
Activity (Enterococcus faecalis): inactive
Activity (Micrococcus luteus): inactive
Activity (Neisseria gonorrhoeae [4]): inactive
Activity (Escherichia coli): inactive
Activity [6]: inactive
Activity (Enterobacter cloacae): inactive
Activity (Staphylococcus aureus [7]): inactive
Activity (Cryptococcus neoformans [8]): inactive

Compound: COc1ccc(/C=C/c2cc(OC)c(OC)c(OC)c2)c(O)c1O
MIC (Staphylococcus aureus [9]): 50 µg
MIC (Cryptococcus neoformans [13]): 50 µg
MIC (Neisseria gonorrhoeae [1]): 6.25 µg
MIC (Candida albicans [14]): 50 µg
MIC (Streptococcus pneumoniae [12]): 50 µg
MIC [15]: 50 µg
